In USRE47689E1, “Compounds for treating spinal muscular atrophy” (PTC Therapeutics, Inc., priority 2011, dated 2019):
Where two headings read alike, the source gives them in different places.

Key:
[1] = test system: SMN2 minigene (full length SMN2 minigene mRNA containing SMN2 exon 7); test: SMN2 minigene mRNA splicing RT-qPCR assay in cultured cells; type: cell-based, human; conditions: Homo sapiens, HEK293-H, read-out: EC1.5x for production of full length SMN2 mRNA
Summary of the method: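 Full-length SMN2 minigene mRNA (exon 7 included), minigene-specific and not endogenous SMN, quantified by RT-qPCR multiplexed with GAPDH in stably transfected HEK293H cells after 24 h compound exposure at 37° C. Abundance from efficiency-corrected Ct, normalized to GAPDH and vehicle; EC1.5x reported as star bins.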

Smn protein = Smn protein assay in cultured cells (SMN HTRF); type: cell-based, human; conditions: for EC1.5x (concentration giving 1.5-fold Smn protein increase): read-out: EC1.5x for Smn protein expression
Summary of the method: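 Smn in SMA fibroblast lysates, measured by anti-SMN HTRF after 48 h compound exposure; EC1.5x from fold change over vehicle.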

[2] = HEK293H cells stably transfected with SMN2-A minigene, 24 hours, 7-point concentration curve, 1.5-fold relative to vehicle-treated cells
[3] = SMA Type 1 patient fibroblast cells (GM03813), 48 hours, 7-point concentration curve, SMN HTRF, concentration producing 1.5 times Smn protein vs DMSO vehicle control
[4] = SMA patient fibroblast cells, 48 hours, 7-point concentration data, fold increase relative to vehicle control (SMN HTRF)

Compound | EC (1.5-fold) [1, 2] [µM] | EC1.5x (concentration giving 1.5-fold Smn protein increase) (Smn protein; [3]) [nM] | maximum fold (Fold) increase of Smn protein (Smn protein; [4]) | melting point [°C] | EC (1.5-fold) ([1]; 24 h) [µM] | maximum fold (Fold) increase of Smn protein (Smn protein) | EC1.5x (concentration giving 1.5-fold Smn protein increase) (Smn protein) [nM]
Cc1nccn2cc(-c3cc4ccc(N5CCCN(C)CC5)cc4oc3=O)cc12 [Compound 556, 7-(4-methyl-1,4-diazepan-1-yl)-3-(1-methylpyrrolo[1,2-a]pyrazin-7-yl)-2H-chromen-2-one] | 0.1 to 0.3 | 300 to 1000 | *** (fold increase between >1.35 and ≤1.5) | 125 to 128 | – | – | –
CCOc1ncccc1-c1cc2ccc(N3CCNCC3)cc2oc1=O [Compound 256, 3-(2-ethoxypyridin-3-yl)-7-(piperazin-1-yl)-2H-chromen-2-one] | 3 to 30 | – | * (maximum fold increase of ≤1.2) | 186 to 188 | – | – | –
CN1CCN(c2ccc3cc(-c4cn5ncccc5n4)c(=O)oc3c2)CC1 [Cpd 128, 3-(imidazo[1,2-b]pyridazin-2-yl)-7-(4-methylpiperazin-1-yl)-2H-chromen-2-one] | 1 to 3 | 3000 to 10000 | *** (fold increase between >1.35 and ≤1.5) | 284 to 285 | – | – | –
Cc1nn2cc(-c3cc4ccc(N5CCN[C@H](C)C5)cc4oc3=O)nc2s1 [Compound 483, 3-(2-methylimidazo[2,1-b][1,3,4]thiadiazol-6-yl)-7-[(3R)-3-methylpiperazin-1-yl]-2H-chromen-2-one] | 0.1 to 0.3 | 1000 to 3000 | *** (fold increase between >1.35 and ≤1.5) | 206 to 210 | – | – | –
Cc1cn2cc(-c3cc4ccc(N5CCN[C@H](C)C5)cc4oc3=O)cc2c(C)n1 [Compound 668, 3-(1,3-dimethylpyrrolo[1,2-a]pyrazin-7-yl)-7-[(3R)-3-methylpiperazin-1-yl]-2H-chromen-2-one] | < 0.1 | < 300 | ***** (fold increase >1.65) | 205 to 209 | – | – | –
O=c1oc2cc(N3CCNCC3)cc(F)c2cc1-c1cc(F)cc(F)c1 [Cpd 290, 3-(3,5-difluorophenyl)-5-fluoro-7-(piperazin-1-yl)-2H-chromen-2-one] | 0.3 to 1 | – | * (maximum fold increase of ≤1.2) | 193 to 198 | – | – | –
CC(=O)O.CC[C@H]1CN(c2ccc3cc(-c4cn5cc(C)nc(C)c5n4)c(=O)oc3c2)CCN1C [Compound 778, 3-(6,8-dimethylimidazo [1,2-a]pyrazin-2-yl)-7-[(3S)-3-ethyl-4-methylpiperazin-1-yl]-2H-chromen-2-one acetate] | < 0.1 | < 300 | ***** (fold increase >1.65) | 170 to 172 | – | – | –
CN1CCN(c2ccc3cc(-c4ccsc4)c(=O)oc3c2)CC1 [Compound 320, 7-(4-methylpiperazin-1-yl)-3-(thiophen-3-yl)-2H-chromen-2-one] | – | – | * (maximum fold increase of ≤1.2) | 151 to 153 | 1 to 3 | – | –
O=c1oc2cc(N3CCNCC3)cc(F)c2cc1-c1ccccn1 [Compound 161, 5-fluoro-7-(piperazin-1-yl)-3-(pyridin-2-yl)-2H-chromen-2-one] | – | – | – | 221 to 225 | 1 to 3 | *** (key: *: maximum fold increase of ≤1.2; **: fold increase between >1.2 and ≤1.35; ***: fold increase between >1.35 and ≤1.5; ****: fold increase between >1.5 and ≤1.65; *****: fold increase >1.65) | 3000 to 10000
Cc1cc2cc(-c3cc4ccc(N5CCN(C)[C@@H](C)C5)cc4oc3=O)oc2c(C)n1 [Compound 805, 3-(5,7-dimethylfuro[2,3-c]pyridin-2-yl)-7-[(3S)-3,4-dimethylpiperazin-1-yl]-2H-chromen-2-one] | < 0.1 | < 300 | ***** (fold increase >1.65) | 200 to 205 | – | – | –
C[C@@H]1CN(c2ccc3cc(-c4nc5c(Cl)cccc5s4)c(=O)oc3c2)C[C@H](C)N1 [Compound 25, 3-(4-chloro-1,3-benzothiazol-2-yl)-7-[(3R,5S)-3,5-dimethylpiperazin-1-yl]-2H-chromen-2-one] | 0.3 to 1 | – | * (maximum fold increase of ≤1.2) | 229 to 235 | – | – | –
Cc1cn2cc(-c3cc4ccc(N5C[C@@H](C)N[C@@H](C)C5)cc4oc3=O)cc2cn1 [Compound 584, 7-[(3R,5S)-3,5-dimethylpiperazin-1-yl]-3-(3-methylpyrrolo[1,2-a]pyrazin-7-yl)-2H-chromen-2-one] | < 0.1 | < 300 | ***** (fold increase >1.65) | 172 to 174 | – | – | –
Cc1cn2cc(-c3cc4ccc(CCCN(C)C)cc4oc3=O)nc2c(C)n1 [Compound 857, 7-[3-(dimethylamino)propyl]-3-(6,8-dimethylimidazo[1,2-a]pyrazin-2-yl)-2H-chromen-2-one] | < 0.1 | < 300 | ***** (fold increase >1.65) | 194 to 196 | – | – | –
O=c1oc2cc(N3CCNCC3)cc(F)c2cc1-c1cn2cccnc2n1 [Compound 312, 5-fluoro-3-(imidazo[1,2-a]pyrimidin-2-yl)-7-(piperazin-1-yl)-2H-chromen-2-one] | 0.3 to 1 | – | ** (fold increase between >1.2 and ≤1.35) | 298 to 302 | – | – | –
O=c1oc2cc(N3CCNCC3)ccc2cc1-c1cccnc1 [Compound 12, 7-(piperazin-1-yl)-3-(pyridin-3-yl)-2H-chromen-2-one] | – | – | * (maximum fold increase of ≤1.2) | 170 to 172 | 3 to 30 | – | –
Cc1nccn2cc(-c3cc4ccc(N5CCNCC5)cc4oc3=O)nc12 [Compound 571, 3-(8-methylimidazo[1,2-a]pyrazin-2-yl)-7-(piperazin-1-yl)-2H-chromen-2-one] | 0.3 to 1 | – | ** (fold increase between >1.2 and ≤1.35) | 213 to 215 | – | – | –
C[C@H]1CN(c2ccc3cc(-c4cccc(F)c4F)c(=O)oc3c2)CCN1 [Compound 546, 3-(2,3-difluorophenyl)-7-[(3S)-3-methylpiperazin-1-yl]-2H-chromen-2-one] | 3 to 30 | – | * (maximum fold increase of ≤1.2) | 116 to 118 | – | – | –
C[C@@H]1CN(c2ccc3cc(-c4ccc5c(c4)OCO5)c(=O)oc3c2)CCN1 [Compound 488, 3-(1,3-benzodioxol-5-yl)-7-[(3R)-3-methylpiperazin-1-yl]-2H-chromen-2-one] | 3 to 30 | – | * (maximum fold increase of ≤1.2) | 135 to 137 | – | – | –
CCc1ccn2cc(-c3cc4ccc(N5C[C@@H](C)N[C@@H](C)C5)cc4oc3=O)nc2c1 [Compound 289, 7-[(3R,5S)-3,5-dimethylpiperazin-1-yl]-3-(7-ethylimidazo[1,2-a]pyridin-2-yl)-2H-chromen-2-one] | 0.3 to 1 | – | * (maximum fold increase of ≤1.2) | 183 to 188 | – | – | –
